The values that follow come from US10870647B2, “Imidazopyridine derivative, method for preparing same, and pharmaceutical composition containing same as active ingredient for preventing or treating cancer” (DAEGU-GYEONGBUK MEDICAL INNOVATION FOUNDATION, priority 2016, dated 2020).

Holding throughout (experiment): Kinase selectivity, scanMAX Kinase assay panel (DiscoverX), % control at 1 uM
What all share (type): binding

In assay [1] the target is T1, scanMAX Kinase assay panel (Homo sapiens, UniProt Q9Y2K2).
T1 construct: purchased DiscoverX
As to conditions: QSK; 1 uM; read-out: Percent Control (%). In outline: (§1)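 Activity was called for kinases showing % control under 35, calculated from compound signal relative to positive and negative controls. Each compound screened at 1 uM against the DiscoverX scanMAX panel.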

Assay [2] concerns the target T2, scanMAX Kinase assay panel (Homo sapiens, UniProt P0C264).
T2 construct: purchased DiscoverX
T2 sequence (P0C264 1-359): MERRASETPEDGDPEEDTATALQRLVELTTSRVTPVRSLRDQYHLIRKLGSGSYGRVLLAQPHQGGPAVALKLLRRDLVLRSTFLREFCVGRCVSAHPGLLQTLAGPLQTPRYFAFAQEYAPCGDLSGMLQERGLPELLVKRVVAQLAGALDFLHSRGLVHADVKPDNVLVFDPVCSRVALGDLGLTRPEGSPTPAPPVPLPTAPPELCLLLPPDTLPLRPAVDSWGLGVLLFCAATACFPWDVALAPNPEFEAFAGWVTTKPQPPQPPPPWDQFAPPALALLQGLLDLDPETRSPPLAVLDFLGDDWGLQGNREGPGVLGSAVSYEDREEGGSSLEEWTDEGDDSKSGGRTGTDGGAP
The note with it: SgK110; 1 uM; read-out: Percent Control (%). In a few lines: as §1

The target of assay [3] is T3, scanMAX Kinase assay panel (Homo sapiens, UniProt Q8IYT8).
T3 construct: purchased DiscoverX
T3 sequence (Q8IYT8 1-1036): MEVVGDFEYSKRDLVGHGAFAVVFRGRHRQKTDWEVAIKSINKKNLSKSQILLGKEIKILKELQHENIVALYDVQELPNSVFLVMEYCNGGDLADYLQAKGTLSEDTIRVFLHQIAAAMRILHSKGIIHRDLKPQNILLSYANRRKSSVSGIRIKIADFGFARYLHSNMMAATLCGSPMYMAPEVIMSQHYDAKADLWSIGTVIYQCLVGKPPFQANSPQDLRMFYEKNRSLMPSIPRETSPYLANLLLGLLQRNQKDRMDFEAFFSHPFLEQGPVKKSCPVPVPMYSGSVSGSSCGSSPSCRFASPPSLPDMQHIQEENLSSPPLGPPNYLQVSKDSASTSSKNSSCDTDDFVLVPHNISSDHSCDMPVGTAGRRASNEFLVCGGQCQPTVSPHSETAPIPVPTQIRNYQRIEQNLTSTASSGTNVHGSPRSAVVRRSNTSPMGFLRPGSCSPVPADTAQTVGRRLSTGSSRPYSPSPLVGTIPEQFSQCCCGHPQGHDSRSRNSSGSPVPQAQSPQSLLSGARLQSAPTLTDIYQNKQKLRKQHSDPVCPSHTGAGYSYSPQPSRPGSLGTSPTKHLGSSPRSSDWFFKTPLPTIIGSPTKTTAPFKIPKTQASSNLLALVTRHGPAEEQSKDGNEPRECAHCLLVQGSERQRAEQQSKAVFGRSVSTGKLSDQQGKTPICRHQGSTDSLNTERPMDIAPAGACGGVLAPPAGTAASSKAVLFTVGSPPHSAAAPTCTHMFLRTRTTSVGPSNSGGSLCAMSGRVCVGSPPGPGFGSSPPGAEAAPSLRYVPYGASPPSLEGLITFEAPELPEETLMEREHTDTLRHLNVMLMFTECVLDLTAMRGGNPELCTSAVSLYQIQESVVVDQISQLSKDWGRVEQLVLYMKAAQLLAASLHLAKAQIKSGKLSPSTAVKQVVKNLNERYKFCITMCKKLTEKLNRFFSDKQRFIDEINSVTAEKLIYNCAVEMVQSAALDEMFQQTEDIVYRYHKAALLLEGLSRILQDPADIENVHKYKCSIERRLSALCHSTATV
As to conditions: ULK2; 1 uM; read-out: Percent Control (%). In outline: as §1

The target in assay [4] is T4, scanMAX Kinase assay panel (Homo sapiens, UniProt P42336, H1047Y).
T4 construct: purchased DiscoverX
The note with it: PIK3CA (H1047Y); 1 uM; read-out: Percent Control (%). In a few lines:
as §1

Assay [5] deals with T5, scanMAX Kinase assay panel (Homo sapiens, UniProt P08581, Y1235D).
T5 construct: purchased DiscoverX
As to conditions: MET (Y1235D); 1 uM; read-out: Percent Control (%). In a few lines: as §1

Assay [6] addresses T6, scanMAX Kinase assay panel (Homo sapiens, UniProt Q13555).
T6 construct: purchased DiscoverX
As to conditions: CAMK2G; 1 uM; read-out: Percent Control (%). In outline: as §1

T1 sequence (Q9Y2K2 whole entry): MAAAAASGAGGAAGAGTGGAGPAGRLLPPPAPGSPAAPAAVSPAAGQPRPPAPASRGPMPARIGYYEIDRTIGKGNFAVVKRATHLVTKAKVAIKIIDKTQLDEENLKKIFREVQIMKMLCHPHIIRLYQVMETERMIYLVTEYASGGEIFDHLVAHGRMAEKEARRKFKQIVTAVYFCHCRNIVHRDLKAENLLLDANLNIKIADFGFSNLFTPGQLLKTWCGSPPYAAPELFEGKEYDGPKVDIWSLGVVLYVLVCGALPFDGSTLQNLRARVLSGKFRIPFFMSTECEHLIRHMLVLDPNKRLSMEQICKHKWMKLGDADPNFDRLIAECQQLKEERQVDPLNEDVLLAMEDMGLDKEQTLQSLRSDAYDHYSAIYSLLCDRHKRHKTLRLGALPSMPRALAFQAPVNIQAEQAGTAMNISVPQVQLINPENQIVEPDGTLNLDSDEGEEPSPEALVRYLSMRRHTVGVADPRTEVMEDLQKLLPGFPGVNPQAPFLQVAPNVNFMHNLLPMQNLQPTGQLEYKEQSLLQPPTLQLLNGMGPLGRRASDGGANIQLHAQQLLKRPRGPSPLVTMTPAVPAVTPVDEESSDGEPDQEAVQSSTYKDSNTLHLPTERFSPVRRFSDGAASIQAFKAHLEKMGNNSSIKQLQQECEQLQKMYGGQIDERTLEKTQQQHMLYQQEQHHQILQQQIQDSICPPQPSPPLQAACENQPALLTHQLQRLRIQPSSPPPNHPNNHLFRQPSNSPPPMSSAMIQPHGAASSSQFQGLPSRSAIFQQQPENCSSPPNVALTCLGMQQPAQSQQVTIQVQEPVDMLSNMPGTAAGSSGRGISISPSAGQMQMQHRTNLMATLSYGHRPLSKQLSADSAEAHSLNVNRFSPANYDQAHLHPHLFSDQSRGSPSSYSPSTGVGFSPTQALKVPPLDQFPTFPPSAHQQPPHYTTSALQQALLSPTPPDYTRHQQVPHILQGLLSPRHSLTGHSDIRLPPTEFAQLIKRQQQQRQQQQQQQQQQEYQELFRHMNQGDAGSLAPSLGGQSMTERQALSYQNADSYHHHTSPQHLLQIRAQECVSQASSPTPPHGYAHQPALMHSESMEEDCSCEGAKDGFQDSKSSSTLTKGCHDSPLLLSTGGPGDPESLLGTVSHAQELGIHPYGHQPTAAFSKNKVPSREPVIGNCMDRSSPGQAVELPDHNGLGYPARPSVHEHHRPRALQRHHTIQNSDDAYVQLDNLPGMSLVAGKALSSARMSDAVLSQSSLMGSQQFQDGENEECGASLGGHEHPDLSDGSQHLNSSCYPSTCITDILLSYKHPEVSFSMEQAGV
T5 sequence (P08581 25-1390 Y1235D): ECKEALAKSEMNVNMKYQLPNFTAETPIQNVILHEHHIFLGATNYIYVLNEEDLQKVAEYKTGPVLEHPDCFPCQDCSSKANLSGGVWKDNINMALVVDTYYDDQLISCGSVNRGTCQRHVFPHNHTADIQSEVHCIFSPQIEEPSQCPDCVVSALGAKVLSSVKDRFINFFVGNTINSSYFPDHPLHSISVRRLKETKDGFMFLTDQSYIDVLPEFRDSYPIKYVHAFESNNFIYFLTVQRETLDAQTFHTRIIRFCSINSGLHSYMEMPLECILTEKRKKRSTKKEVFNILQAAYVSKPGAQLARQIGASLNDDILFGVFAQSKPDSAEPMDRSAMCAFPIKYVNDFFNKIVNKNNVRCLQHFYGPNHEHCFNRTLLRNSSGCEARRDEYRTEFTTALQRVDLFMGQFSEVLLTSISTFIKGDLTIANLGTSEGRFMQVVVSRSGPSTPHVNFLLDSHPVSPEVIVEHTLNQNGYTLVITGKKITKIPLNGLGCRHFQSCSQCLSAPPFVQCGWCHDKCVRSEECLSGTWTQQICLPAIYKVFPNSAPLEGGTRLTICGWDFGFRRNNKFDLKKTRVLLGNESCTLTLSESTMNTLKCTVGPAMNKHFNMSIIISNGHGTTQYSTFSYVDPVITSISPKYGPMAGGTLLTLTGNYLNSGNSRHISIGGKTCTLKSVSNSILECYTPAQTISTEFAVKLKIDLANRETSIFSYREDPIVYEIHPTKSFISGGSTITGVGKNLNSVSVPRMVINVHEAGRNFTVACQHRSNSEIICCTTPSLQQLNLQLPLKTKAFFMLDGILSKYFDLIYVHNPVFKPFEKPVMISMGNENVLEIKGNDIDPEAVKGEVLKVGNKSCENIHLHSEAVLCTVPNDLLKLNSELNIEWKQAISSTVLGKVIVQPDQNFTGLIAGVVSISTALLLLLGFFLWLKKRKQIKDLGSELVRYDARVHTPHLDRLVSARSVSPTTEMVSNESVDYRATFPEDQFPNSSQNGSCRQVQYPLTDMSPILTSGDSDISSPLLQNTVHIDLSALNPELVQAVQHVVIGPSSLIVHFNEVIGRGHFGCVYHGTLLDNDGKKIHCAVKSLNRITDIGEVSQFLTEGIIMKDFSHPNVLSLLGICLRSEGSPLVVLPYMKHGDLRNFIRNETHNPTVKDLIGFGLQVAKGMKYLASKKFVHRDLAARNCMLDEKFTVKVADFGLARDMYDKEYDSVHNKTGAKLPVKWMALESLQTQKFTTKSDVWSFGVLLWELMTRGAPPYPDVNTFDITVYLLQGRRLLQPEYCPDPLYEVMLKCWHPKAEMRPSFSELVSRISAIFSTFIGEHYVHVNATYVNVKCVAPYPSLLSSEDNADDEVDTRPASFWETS
T4 sequence (P42336 whole entry H1047Y): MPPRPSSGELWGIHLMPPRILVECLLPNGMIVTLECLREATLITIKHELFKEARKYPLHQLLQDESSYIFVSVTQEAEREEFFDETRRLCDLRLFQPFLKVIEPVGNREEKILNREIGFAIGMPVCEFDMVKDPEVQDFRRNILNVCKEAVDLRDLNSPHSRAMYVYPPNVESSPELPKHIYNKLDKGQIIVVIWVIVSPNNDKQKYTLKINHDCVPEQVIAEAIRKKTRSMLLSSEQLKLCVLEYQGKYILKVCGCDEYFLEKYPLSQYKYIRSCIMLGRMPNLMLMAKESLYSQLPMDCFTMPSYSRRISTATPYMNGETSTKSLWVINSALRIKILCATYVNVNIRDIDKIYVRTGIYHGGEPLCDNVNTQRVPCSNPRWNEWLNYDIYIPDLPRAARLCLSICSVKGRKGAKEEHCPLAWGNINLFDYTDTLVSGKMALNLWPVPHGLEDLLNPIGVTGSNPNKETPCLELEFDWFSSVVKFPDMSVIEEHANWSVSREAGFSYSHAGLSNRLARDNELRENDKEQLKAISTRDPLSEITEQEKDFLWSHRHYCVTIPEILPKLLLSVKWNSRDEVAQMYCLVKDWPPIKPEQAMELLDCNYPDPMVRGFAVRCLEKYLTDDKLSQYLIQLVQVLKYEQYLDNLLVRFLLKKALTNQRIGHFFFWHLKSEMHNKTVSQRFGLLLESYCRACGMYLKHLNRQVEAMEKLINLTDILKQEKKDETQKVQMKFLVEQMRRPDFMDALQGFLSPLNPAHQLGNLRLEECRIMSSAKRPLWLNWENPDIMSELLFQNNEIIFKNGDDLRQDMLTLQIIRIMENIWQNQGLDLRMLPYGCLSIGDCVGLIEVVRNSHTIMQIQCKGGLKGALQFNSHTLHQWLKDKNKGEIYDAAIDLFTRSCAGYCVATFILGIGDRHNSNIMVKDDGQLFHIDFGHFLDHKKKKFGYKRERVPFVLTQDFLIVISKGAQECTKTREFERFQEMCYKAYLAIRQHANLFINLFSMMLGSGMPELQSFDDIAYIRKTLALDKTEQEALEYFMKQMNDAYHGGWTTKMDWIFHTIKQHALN
T6 sequence (Q13555 whole entry): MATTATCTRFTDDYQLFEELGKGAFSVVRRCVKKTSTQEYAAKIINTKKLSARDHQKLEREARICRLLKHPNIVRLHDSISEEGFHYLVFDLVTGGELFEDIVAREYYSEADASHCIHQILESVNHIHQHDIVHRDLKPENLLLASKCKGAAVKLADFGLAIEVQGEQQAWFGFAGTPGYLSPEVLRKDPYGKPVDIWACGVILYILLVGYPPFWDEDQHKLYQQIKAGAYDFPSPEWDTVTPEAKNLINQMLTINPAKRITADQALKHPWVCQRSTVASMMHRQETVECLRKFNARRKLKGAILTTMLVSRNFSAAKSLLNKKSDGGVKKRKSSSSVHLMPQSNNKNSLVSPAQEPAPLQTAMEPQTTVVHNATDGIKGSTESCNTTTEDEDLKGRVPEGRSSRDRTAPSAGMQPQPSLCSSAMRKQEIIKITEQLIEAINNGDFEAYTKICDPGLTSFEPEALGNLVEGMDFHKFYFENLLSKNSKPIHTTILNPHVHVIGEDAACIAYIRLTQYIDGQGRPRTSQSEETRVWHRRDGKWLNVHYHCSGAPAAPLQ

Regarding `Cc1ccc(C(=O)Nc2ccc(CN3CCN(C)CC3)c(C(F)(F)F)c2)cc1C#Cc1cnc2c(Nc3cnn(C)c3)cccn12` [Example 1, 4-methyl-3-((8-((1-methyl-1H-pyrazol-4-yl)amino)imidazo[1,2-a]pyridin-3-yl)ethynyl)-N-(4-((4-methylpiperazin-1-yl)methyl)-3-(trifluoromethyl)phenyl)benzamide], the remaining binding at 1 µM in assay [1] was 89%; in assay [2] it was 95%; in assay [3], 62%; in assay [4], 74%; in assay [5], 61%; in assay [6], 73%.
`Cc1cn(-c2cc(NC(=O)c3ccc(C)c(C#Cc4cnc5c(Nc6cnn(C)c6)cccn45)c3)cc(C(F)(F)F)c2)cn1` [Example 12, 4-methyl-N-(3-(4-methyl-1H-imidazol-1-yl)-5-(trifluoromethyl)phenyl)-3-((8-((1-methyl-1H-pyrazol-4-yl)amino)imidazo[1,2-a]pyridin-3-yl)ethynyl)benzamide]: the remaining binding at 1 µM in assay [1] was determined as 97%; in assay [2], 81%; in assay [3], 100%; in assay [4], 84%; in assay [5], 59%; in assay [6] it was 80%.
Consider `Cc1ccc(NC(=O)C2(C(=O)Nc3ccc(F)cc3)CC2)cc1C#Cc1cnc2c(Nc3cnn(C(C)C)c3)cccn12` [Example 78], for which the remaining binding at 1 µM in assay [1] is 100%; in assay [2], 100%; in assay [3], 90%; in assay [4], 100%; in assay [5], 82%; in assay [6] it was 100%.
